#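 At the GI50, growth is halved. TGI denotes the concentration required for complete inhibition of growth.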
# What was measured:
# Experiment in all cases: NCI anticancer screen, dose series, 384-well format
# [1] = system: 786-0 renal
# [2] = system: A498 renal
# [3] = system: A549 NSCLC
# [4] = system: ACHN renal
# [5] = system: BT-549 breast
# [6] = system: CAKI-1 renal
# [7] = system: CCRF-CEM leukemia
# [8] = system: COLO 205 colon
# [9] = system: DU-145 prostate
# [10] = system: EKVX NSCLC
# [11] = system: HCC-2998 colon
# [12] = system: HCT-116 colon
# [13] = system: HCT-15 colon
# [14] = system: HL-60(TB) leukemia
# [15] = system: HOP-62 NSCLC
# [16] = system: HOP-92 NSCLC
# [17] = system: HS 578T breast
# [18] = system: HT29 colon
# [19] = system: IGROV1 ovarian
# [20] = system: K-562 leukemia
# [21] = system: KM12 colon
# [22] = system: LOX IMVI melanoma
# [23] = system: M14 melanoma
# [24] = system: MALME-3M melanoma
# [25] = system: MCF7 breast
# [26] = system: MDA-MB-231 breast
# [27] = system: MDA-MB-435 melanoma
# [28] = system: MDA-MB-468 breast
# [29] = system: MOLT-4 leukemia
# [30] = system: NCI-H226 lung
# [31] = system: NCI-H23 lung
# [32] = system: NCI-H322M lung
# [33] = system: NCI-H460 NSCLC
# [34] = system: NCI-H522 lung
# [35] = system: NCI/ADR-RES ovarian
# [36] = system: OVCAR-3 ovarian
# [37] = system: OVCAR-4 ovarian
# [38] = system: OVCAR-5 ovarian
# [39] = system: PC-3 prostate
# [40] = system: RPMI-8226 leukemia
# [41] = system: RXF 393 renal
# [42] = system: SF-268 CNS
# [43] = system: SF-295 CNS
# [44] = system: SF-539 CNS
# [45] = system: SK-MEL-2 melanoma
# [46] = system: SK-MEL-28 melanoma
# [47] = system: SK-MEL-5 melanoma
# [48] = system: SK-OV-3 ovarian
# [49] = system: SN12C renal
# [50] = system: SNB-19 CNS
# [51] = system: SNB-75 CNS
# [52] = system: SR leukemia
# [53] = system: SW-620 colon
# [54] = system: T-47D breast
# [55] = system: TK-10 renal
# [56] = system: U251 glioblastoma
# [57] = system: UACC-257 melanoma
# [58] = system: UACC-62 melanoma
# [59] = system: UO-31 renal
smiles,measurement,setting,value
Cc1cc([N+](=O)[O-])ccc1NS(=O)(=O)c1cc(Cl)ccc1Cl,GI50,[1],7.49 µM
same,TGI,[1],33.6 µM
same,GI50,[2],4.63 µM
same,TGI,[2],22.6 µM
same,GI50,[3],4.62 µM
same,TGI,[3],24 µM
same,GI50,[4],14.4 µM
same,TGI,[4],67.9 µM
same,GI50,[5],3.08 µM
same,TGI,[5],8.84 µM
same,GI50,[6],5.52 µM
same,TGI,[6],39 µM
same,GI50,[7],5.19 µM
same,TGI,[7],18.4 µM
same,GI50,[8],17.1 µM
same,TGI,[8],78 µM
same,GI50,[9],10.1 µM
same,TGI,[9],> 100 µM
same,GI50,[10],3.64 µM
same,TGI,[10],14.6 µM
same,GI50,[11],5.29 µM
same,TGI,[11],24.5 µM
same,GI50,[12],4.45 µM
same,TGI,[12],16 µM
same,GI50,[13],3.44 µM
same,TGI,[13],14.9 µM
same,GI50,[14],2.74 µM
same,TGI,[14],5.97 µM
same,GI50,[15],13.5 µM
same,TGI,[15],35.5 µM
same,GI50,[16],3.63 µM
same,TGI,[16],16.4 µM
same,GI50,[17],3.02 µM
same,TGI,[17],10.6 µM
same,GI50,[18],4.53 µM
same,TGI,[18],> 100 µM
same,GI50,[19],18.9 µM
same,TGI,[19],> 100 µM
same,GI50,[20],7.36 µM
same,TGI,[20],55.7 µM
same,GI50,[21],6.61 µM
same,TGI,[21],43.9 µM
same,GI50,[22],3.74 µM
same,TGI,[22],13.3 µM
same,GI50,[23],16.9 µM
same,TGI,[23],68.3 µM
same,GI50,[24],5.38 µM
same,TGI,[24],24.4 µM
same,GI50,[25],7.65 µM
same,TGI,[25],25.2 µM
same,GI50,[26],5.07 µM
same,TGI,[26],30.8 µM
same,GI50,[27],3.21 µM
same,TGI,[27],26.6 µM
same,GI50,[28],2.16 µM
same,TGI,[28],9.32 µM
same,GI50,[29],7.48 µM
same,TGI,[29],20.2 µM
same,GI50,[30],6.27 µM
same,TGI,[30],20.2 µM
same,GI50,[31],2.98 µM
same,TGI,[31],13.1 µM
same,GI50,[32],3.85 µM
same,TGI,[32],16.4 µM
same,GI50,[33],2.89 µM
same,TGI,[33],11.6 µM
same,GI50,[34],2.87 µM
same,TGI,[34],8.65 µM
same,GI50,[35],3.26 µM
same,TGI,[35],15.9 µM
same,GI50,[36],3.56 µM
same,TGI,[36],15.4 µM
same,GI50,[37],6.02 µM
same,TGI,[37],> 100 µM
same,GI50,[38],12.9 µM
same,TGI,[38],44.1 µM
same,GI50,[39],3.59 µM
same,TGI,[39],14.6 µM
same,GI50,[40],2.09 µM
same,TGI,[40],4.48 µM
same,GI50,[41],4.56 µM
same,TGI,[41],22.3 µM
same,GI50,[42],3.78 µM
same,TGI,[42],27.5 µM
same,GI50,[43],3.99 µM
same,TGI,[43],22.1 µM
same,GI50,[44],5.29 µM
same,TGI,[44],20.1 µM
same,GI50,[45],33.1 µM
same,TGI,[45],49.5 µM
same,GI50,[46],5.46 µM
same,TGI,[46],32.4 µM
same,GI50,[47],2.45 µM
same,TGI,[47],7.27 µM
same,GI50,[48],13.8 µM
same,TGI,[48],49.8 µM
same,GI50,[49],5.83 µM
same,TGI,[49],49.4 µM
same,GI50,[50],5.5 µM
same,TGI,[50],75.6 µM
same,GI50,[51],9.67 µM
same,TGI,[51],35.4 µM
same,GI50,[52],19.1 µM
same,TGI,[52],33.3 µM
same,GI50,[53],5.93 µM
same,TGI,[53],46 µM
same,GI50,[54],2.65 µM
same,TGI,[54],6.31 µM
same,GI50,[55],11.4 µM
same,TGI,[55],> 100 µM
same,GI50,[56],2.91 µM
same,TGI,[56],10.5 µM
same,GI50,[57],4.95 µM
same,TGI,[57],19.2 µM
same,GI50,[58],13.3 µM
same,TGI,[58],33.3 µM
same,GI50,[59],12.4 µM
same,TGI,[59],43.9 µM
